Results on 15 compounds are retold here after patent US9441024B2, “Glycosylated polypeptide and drug composition containing said polypeptide” (priority 2011, dated 2016).

Test [1] relates to growth hormone (GH) production. Nature of the test: GH production suppression test with rats. It counts as in vivo, rat. The conditions noted are these: for GH concentration in plasma / GH production suppression activity (in words): rat; for GH concentration in plasma: 1 hour before GRF, blood 5 minutes after GRF, vehicle 861; for GH: rat plasma GH concentration; for GH production suppression activity (in words): s.c., 10 or 100 nmol/kg. The source says:
As shown in Example 69, the glycosylated polypeptide of the present invention had affinity towards each receptor of SSTR. […] Increase of GH production amount into the blood is thought to cause proliferation or differentiation of cells and activation or suppression of the biosynthetic system in various organs via the paracrine effect of GH, and thereby influence biological reactions. Somatostatin released from the hypothalamus suppresses GH secretion from the anterior pituitary gland into the blood.
. Moreover, GRF (GH releasing hormone, Growth hormone releasing factor) was used as the GH release enhancer. GRF was prepared by dissolving GRF injectable solution (GRF Sumitomo 50 for injection, Lot. 2006C, from Dainippon Sumitomo Pharma Co., Ltd.) in 1 mL of water for injection (Lot. 09H18C, from Fuso Pharmaceutical Industries, Ltd.), and then diluting to 25-folds with saline to obtain 2 μg/mL. As heparin employed as the anticoagulant when collecting blood, Japanese Pharmacopeia heparin sodium injectable solution (Lot. B084, from Mochida Pharmaceutical Co., Ltd.) was used directly as stock solution.
[…]. As the control group, saline without glycosylated polypeptide was similarly administered (vehicle group). Then, i.e. between 5-6 minutes after the administration of the glycosylated form, pentobarbital sodium (somnopentyl, Lot. 0608101, from Kyoritsuseiyaku Corporation) was intraperitoneally administered as a general anesthetic with a glass syringe and an injection needle to give 50 mg/kg. […] […].
. […] By multiplying the results obtained and the dilution ratio, the GH concentration was calculated.

For test [2], the system named is rat gastrointestinal obstruction model. Nature of the test: Gastrointestinal obstruction model: intestinal fluid weight of the jejunum. As to conditions: for Intestinal fluid weight: Table 9, rat, 40 μM solution 1 mL/kg s.c. 18 h after ligation, 1 h after administration. It counts as in vivo.
Source text: Anesthesia was introduced with inhalation of 2% isoflurane and laughing gas:oxygen=7:3, and this was maintained throughout the surgery. A median incision was made in the abdomen, and the jejunum at about 10 cm from the musculus suspensorius duodeni was ligated with a surgical suture. Then, the incision site was promptly sutured, and the rats were fasted until compound administration. In the sham treatment group, ligation of the jejunum was not performed, but the treatment of suturing the incision site after a median incision was made in the abdomen was performed.
(§1) Eighteen hours after the gastrointestinal obstruction surgery, this was subcutaneously administered into the dorsal cervix at a dosage of 1 mL/kg with a glass syringe and a 25 G injection needle (all from Terumo Corporation). As the vehicle group, saline without glycosylated polypeptide was similarly administered.
One hour after compound administration, a median incision was made in the abdomen under inhalation anesthesia, and 1.5 mL of blood was collected from the abdominal vena cava. Then, the ligated jejunum on the musculus suspensorius duodeni side was resected. The fluid and blood on the jejunum surface were removed with a paper towel, nerves, blood vessels, and fat attached to the jejunum was removed, this was cut into 6 cm lengths, and wet weight was measured. This was then dried at 36 degrees for 24 hours, and dry weight was measured. The intestinal fluid weight (mg) was calculated by wet weight-dry weight.
For test [3] the test system is unchanged. Nature of the test: Gastrointestinal obstruction model: blood parameters (amylase, LDH, CPK). It counts as in vivo.
Procedure: This experimental line was carried out as a test line to evaluate the promotion of intestinal fluid absorption or the secretory suppressing action, using the change in the intestinal fluid weight in the jejunum after bowel obstruction as an indicator. Moreover, blood parameters of deviation enzymes amylase (pancreas), lactate dehydrogenase (LDH, liver), and creatine phosphokinase (CPK, skeletal muscle, cardiac muscle etc.) were measured as indicators of tissue disorders.
The present test was consigned to Mitsubishi Chemical Medience Corporation and carried out. […] Anesthesia was introduced with inhalation of 2% isoflurane and laughing gas:oxygen=7:3, and this was maintained throughout the surgery. A median incision was made in the abdomen, and the jejunum at about 10 cm from the musculus suspensorius duodeni was ligated with a surgical suture. Then, the incision site was promptly sutured, and the rats were fasted until compound administration. In the sham treatment group, ligation of the jejunum was not performed, but the treatment of suturing the incision site after a median incision was made in the abdomen was performed.
as §1
One hour after compound administration, a median incision was made in the abdomen under inhalation anesthesia, and 1.5 mL of blood was collected from the abdominal vena cava.
The measuring methods employed were BG5B, UV-rate, and JSCC methods, respectively.
Test [4] has as its system SSTR1-SSTR5. Nature of the test: Competitive binding assay, statements over all receptors SSTR1-SSTR5. Also noted: species or system Human. The conditions noted are these: range over SSTR1-SSTR5, Example 69-1.
Procedure: Competitive binding assay was performed with the method below to calculate receptor binding affinity.
Competitive binding assay was consigned to Ricerca Biosciences, and experiment and data analysis was performed. […] The test substance was used at a concentration of 0.01 nM, 0.1 nM, 1 nM, 10 nM, 100 nM, or 1000 nM, and mixed with the membrane sample into a reaction solution. The incubation condition of the reaction solution was at 25° C. for 4 hours for SSTR2 and at 25° C. for 2 hours for SSTR1, SSTR3, SSTR4, and SSTR5.
Where [5] appears, read: Table 10, blood 1 h after s.c. administration.
Setting [6] is: blood collected one hour after compound administration, rat gastrointestinal obstruction model.

With 29C(disialo)-SRIF28 [Example 13], the “GH concentration in plasma” value in test [1] (subcutaneous 10 nmol/kg) is reported as 497 ng/mL; in test [1] (subcutaneous 100 nmol/kg), 88.5 ng/mL.
In turn, `C[C@@H](O)[C@@H]1NC(=O)[C@H](CCCCN)NC(=O)[C@@H](Cc2c[nH]c3ccccc23)NC(=O)[C@H](Cc2ccccc2)NC(=O)[C@@H](NC(=O)[C@H](N)Cc2ccccc2)CSSC[C@@H](C(=O)N[C@H](CO)[C@@H](C)O)NC1=O` [Octreotide] had an Intestinal fluid weight in test [2] of 693 ± 48 mg. Also, in test [3] (setting [5]), the “Amylase activity compared to the vehicle (in words)” value is recorded as “equivalent to the vehicle” and the “LDH activity compared to the vehicle (in words)” value is reported as “low value compared to the vehicle”. Further, in test [3] (setting [6]), the “Amylase (IU/L)” value is 1732 ± 774 IU/L, the “CPK (IU/L)” value is recorded as 472 ± 215 IU/L and the “LDH (IU/L)” value was found to be 269 ± 141 IU/L.
As for A9C(disialo)-SRIF28 [Example 3], the “GH” value was determined as 577 ng/mL in test [1] (dose 1 nmol/kg) and 20 ng/mL in test [1] (dose 10 nmol/kg).
For the compound E12C(disialo)-SRIF28 [Example 4], the “GH” value in test [1] (dose 10 nmol/kg) turned out to be 10 ng/mL.
As for K14C(disialo)-SRIF28 [Example 6], in test [1] (dose 10 nmol/kg), the “GH” value is 55 ng/mL. Also, in test [1], the “GH production suppression activity (in words)” value is “showed GH production suppression activity”.
Consider N5C(disialo)-SRIF28 [Example 2], for which the “GH” value in test [1] (dose 1 nmol/kg) was found to be 969 ng/mL; in test [1] (dose 10 nmol/kg) it was 12 ng/mL.
Take N19C(disialo)-SRIF28 [Example 10]: the “GH concentration in plasma” value in test [1] (subcutaneous 10 nmol/kg) stood at 563 ng/mL; in test [1] (subcutaneous 100 nmol/kg), 1.5 ng/mL.
Take R13C(disialo)-SRIF28 [Example 5]: in test [1] (dose 10 nmol/kg), the “GH” value is given as 136 ng/mL. Moreover, the “GH production suppression activity (in words)” value in test [1] is reported as “showed GH production suppression activity”.
S1-2C(asialo)-SRIF28 [Example 28]: the “GH” value in test [1] (dose 3 nmol/kg) was found to be 997 ng/mL; in test [1] (dose 10 nmol/kg), 175 ng/mL. The Intestinal fluid weight in test [2] is 566 ± 34 mg. For the same compound, in test [2] (text on Table 9), the “Intestinal fluid weight compared to the vehicle (in words)” value is listed as “increase in the intestinal fluid weight compared to the vehicle”. Also, the “Affinity towards SSTR1-SSTR5, times higher than S1C(disialo)-SRIF28” value in test [4] was 1.7-2.9 folds.
S1C(asialo)-SRIF28 [Example 27]: the figures for the “GH” value in test [1] (dose 1 nmol/kg), in test [1] (dose 3 nmol/kg) and in test [1] (dose 10 nmol/kg) were 879 ng/mL, 515 ng/mL and 146 ng/mL, respectively.
For the compound S1C(disialo(Bn))-SRIF28 [Example 61], the “GH” value in test [1] (dose 10 nmol/kg) is given as 49 ng/mL.
The same measure, in the same setting: next, S1C(disialo(amide))-SRIF28 [Example 60]: 14 ng/mL; “S1C(disialo(aminoethylamide))-SRIF28 [Example 59]”: 314 ng/mL.
Regarding “S1C(disialo)-D-Trp22-SRIF28 [Example 15]”, the “GH” value in test [1] (dose 0.3 nmol/kg) is recorded as 986 ng/mL; in test [1] (dose 1 nmol/kg) it was 335 ng/mL; in test [1] (dose 3 nmol/kg), 50 ng/mL; in test [1] (dose 10 nmol/kg), 6 ng/mL; in test [1] (dose 30 nmol/kg), 2 ng/mL.
S1C(monosialo)-SRIF28 [Example 26]: the “GH” value in test [1] (dose 10 nmol/kg) stood at 47 ng/mL.
